Entries after “also recorded” stand apart in the source; their conditions may differ.
Legend:
[1] = Excretion/elimination of BI 1356 at therapeutic oral dose levels; type: in vivo
[2] = Safety and tolerability in people with type 2 diabetes; type: in vivo

Structure (SMILES): CC#CCn1c(N2CCC[C@@H](N)C2)nc2c1c(=O)n(Cc1nc(C)c3ccccc3n1)c(=O)n2C [BI 1356, 1-[(4-methyl-quinazolin-2-yl)methyl]-3-methyl-7-(2-butyn-1-yl)-8-(3-(R)-amino-piperidin-1-yl)-xanthine]
- fraction excreted via the kidney [1]: < 7 % of the administered oral dose
- main route of excretion [1]: mainly excreted via the liver; also recorded: primarily excreted unchanged via the bile
- safety and tolerability [2]: placebo-like safety and tolerability
